Measured values taken from patent US12043617B2, “4-(N-methyl) aminopiperidine myricetin derivative containing dithiocarbamate, preparation method and application” (Guizhou University, priority 2019, dated 2024).

Test system: SMMC-7721 cells
Experiment: MTT colorimetry, inhibition of hepatocellular carcinoma SMMC-7721 cell activity
Format: cell-based
Details: 48 hours
Procedure: Test for Inhibition of Cancer Cell Activity by Compound of Embodiment 19 (Taking Hepatocellular Carcinoma SMMC-7721 Cells as an embodiment):
SMMC-7721 cells are cultured in DMEM high sugar medium containing 10% fetal bovine serum in a saturated humidity incubator at 37° C. and 5% CO2. The culture medium is changed every two days and passaged every 3-4 days. The drug is prepared as 1 mmol/L and 10 mmol/L storage solution using DMSO as solvent, when used, the concentration is diluted into 1 μmol/L and 10 μmol/L with culture medium, using DMSO as negative control group and gemcitabine as positive control group to act on cells in logarithmic growth phase.
Cells in logarithmic growth phase are digested with 0.025% pancreatin, and then digested with DMEM high sugar medium containing 10% fetal bovine serum. After centrifugation, the cells are suspended in DMEM high sugar medium containing 10% fetal bovine serum. Take a 96-well plate and add 200 μL of sterile water seal to each hole around the plate to ensure saturated humidity in the experiment. In the middle six rows, 100 μL of cell suspension are added respectively, and the cell concentration is about 3.5×10^4 cells/mL. The last row is blank control group, and the same volume of complete culture medium is added. In 37° C., 5% CO2 saturated humidity incubator culture for 24 hours, cells completely adhere to the wall, remove the culture medium, add complete culture medium containing different drugs, 200 μL per hole. The blank control group is added with 200 μL of complete culture medium, and the culture is continued. After 24 hours, the drug effect is observed and photographed under an inverted microscope. After 48 hours, the drug effect is also observed and photographed under an inverted microscope. Then the supernatant is removed. 100 μL of 0.5 mg/mL MTT solution is added to each well. After 4 hours of continuous culture, purple crystal formazan is generated. 100 μL of 10% SDS is added to each well. After 12 hours of culture in an incubator at 37° C., the OD value is measured with an enzyme reader at A571 wavelength. Repeat 6 wells for each sample concentration, and calculate the inhibition rate by taking the average value.

## COc1cc(OC)c2c(=O)c(OCCCN(C)C3CCN(C(=S)SCc4ccc(Cl)cc4)CC3)c(-c3cc(OC)c(OC)c(OC)c3)oc2c1 [Compound A1, 4-chlorobenzyl 4-((3-((5,7-dimethoxy-4-oxo-2-(3,4,5-trimethoxyphenyl)-4H-chromene-3-yl)oxy)propyl)(methyl)amino)piperidine-1-dithiocarboxylic acid]
1 μmol/L
  Inhibition Rate (%): 21.82 ± 2.34 %
10 μmol/L
  Inhibition Rate (%): 95.51 ± 4.16 %

## COc1cc(OC)c2c(=O)c(OCCCN(C)C3CCN(C(=S)SCc4ccccc4Cl)CC3)c(-c3cc(OC)c(OC)c(OC)c3)oc2c1 [Compound A2, 2-chlorobenzyl-4-((3-((5,7-dimethoxy-4-oxo-2-(3,4,5-trimethoxyphenyl)-4H-chromene-3-yl)oxy)propyl)(methyl)amino)piperidine-1-dithiocarboxylic acid]
1 μmol/L
  Inhibition Rate (%): 25.44 ± 3.25 %
10 μmol/L
  Inhibition Rate (%): 96.13 ± 3.42 %

## COc1cc(OC)c2c(=O)c(OCCCN(C)C3CCN(C(=S)SCc4ccc(Cl)cc4Cl)CC3)c(-c3cc(OC)c(OC)c(OC)c3)oc2c1 [Compound A3, 2,4-dichlorobenzyl 4-((3-((5,7-dimethoxy-4-oxo-2-(3,4,5-trimethoxyphenyl)-4H-chromene-3-yl)oxy)propyl) (methyl)amino) piperidine-1-dithiocarboxylic acid]
1 μmol/L
  Inhibition Rate (%): 18.16 ± 2.14 %
10 μmol/L
  Inhibition Rate (%): 97.35 ± 1.78 %

## COc1cc(OC)c2c(=O)c(OCCCN(C)C3CCN(C(=S)SCc4ccccc4F)CC3)c(-c3cc(OC)c(OC)c(OC)c3)oc2c1 [Compound A4, 2-fluorobenzyl 4-((3-((5,7-dimethoxy-4-oxo-2-(3,4,5-trimethoxyphenyl)-4H-chromene-3-yl)oxy)propyl)(methyl)amino) piperidine-1-dithiocarboxylic acid]
1 μmol/L
  Inhibition Rate (%): 20.66 ± 1.21 %
10 μmol/L
  Inhibition Rate (%): 99.85 ± 1.64 %

## COc1cc(OC)c2c(=O)c(OCCCN(C)C3CCN(C(=S)SCc4cccc(C)c4)CC3)c(-c3cc(OC)c(OC)c(OC)c3)oc2c1 [Compound A5, 3-methylbenzyl 4-((3-((5,7-dimethoxy-4-oxo-2-(3,4,5-trimethoxyphenyl)-4H-chromene-3-yl)oxy)propyl) (methyl)amino) piperidine-1-dithiocarboxylic acid]
1 μmol/L
  Inhibition Rate (%): 12.32 ± 2.39 %
10 μmol/L
  Inhibition Rate (%): 97.52 ± 1.12 %

## COc1cc(OC)c2c(=O)c(OCCCN(C)C3CCN(C(=S)SCc4ccccc4C)CC3)c(-c3cc(OC)c(OC)c(OC)c3)oc2c1 [Compound A6, 2-methylbenzyl 4-((3-((5,7-dimethoxy-4-oxo-2-(3,4,5-trimethoxyphenyl)-4H-chromene-3-yl)oxy)propyl) (methyl)amino) piperidine-1-dithiocarboxylic acid]
1 μmol/L
  Inhibition Rate (%): 34.32 ± 2.69 %
10 μmol/L
  Inhibition Rate (%): 98.12 ± 2.76 %

## COc1cc(OC)c2c(=O)c(OCCCN(C)C3CCN(C(=S)SCc4ccc([N+](=O)[O-])cc4)CC3)c(-c3cc(OC)c(OC)c(OC)c3)oc2c1 [Compound A7, 4-nitrobenzyl 4-((3-((5,7-dimethoxy-4-oxo-2-(3,4,5-trimethoxyphenyl)-4H-chromene-3-yl)oxy)propyl) (methyl)amino) piperidine-1-dithiocarboxylic acid]
1 μmol/L
  Inhibition Rate (%): 27.70 ± 1.09 %
10 μmol/L
  Inhibition Rate (%): 99.35 ± 3.48 %

## COc1cc(OC)c2c(=O)c(OCCCN(C)C3CCN(C(=S)SCc4cccnc4)CC3)c(-c3cc(OC)c(OC)c(OC)c3)oc2c1 [Compound A8, pyridine-3-ylmethyl 4-((3-((5,7-dimethoxy-4-oxo-2-(3,4,5-trimethoxyphenyl)-4H-chromene-3-yl)oxy)propyl) (methyl)amino) piperidine-1-dithiocarboxylic acid]
1 μmol/L
  Inhibition Rate (%): 15.48 ± 2.74 %
10 μmol/L
  Inhibition Rate (%): 99.85 ± 1.64 %

## COc1cc(OC)c2c(=O)c(OCCCN(C)C3CCN(C(=S)SCc4ccc(Cl)nc4)CC3)c(-c3cc(OC)c(OC)c(OC)c3)oc2c1 [Compound A9, (6-chloropyridine-3-yl) methyl 4-((3-((5,7-dimethoxy-4-oxo-2-(3,4,5-trimethoxyphenyl)-4H-benzopyran-3-yl)oxygen)propyl) (methyl)amino) piperidine-1-dithiocarboxylic acid]
1 μmol/L
  Inhibition Rate (%): 18.83 ± 3.15 %
10 μmol/L
  Inhibition Rate (%): 99.76 ± 1.06 %

## COc1cc(OC)c2c(=O)c(OCCCCN(C)C3CCN(C(=S)SCc4ccc(Cl)cc4)CC3)c(-c3cc(OC)c(OC)c(OC)c3)oc2c1 [Compound A10, 4-chlorobenzyl-4-((4-((5,7-dimethoxy-4-oxo-2-(3,4,5-trimethoxyphenyl)-4H-benzopyran-3-yl)oxy)butyl) (methyl)amino) piperidine-1-dithiocarboxylic acid]
1 μmol/L
  Inhibition Rate (%): 92.83 ± 3.84 %
10 μmol/L
  Inhibition Rate (%): 97.85 ± 3.35 %

## COc1cc(OC)c2c(=O)c(OCCCCN(C)C3CCN(C(=S)SCc4ccccc4Cl)CC3)c(-c3cc(OC)c(OC)c(OC)c3)oc2c1 [Compound A11, 2-chlorobenzyl-4-((4-((5,7-dimethoxy-4-oxo-2-(3,4,5-trimethoxyphenyl)-4H-benzopyran-3-yl)oxy)butyl) (methyl)amino) piperidine-1-dithiocarboxylic acid]
1 μmol/L
  Inhibition Rate (%): 91.00 ± 2.86 %
10 μmol/L
  Inhibition Rate (%): 99.85 ± 1.64 %

## COc1cc(OC)c2c(=O)c(OCCCCN(C)C3CCN(C(=S)SCc4ccc(Cl)cc4Cl)CC3)c(-c3cc(OC)c(OC)c(OC)c3)oc2c1 [Compound A12, 2,4-dichlorobenzyl-4-((4-((5,7-dimethoxy-4-oxo-2-(3,4,5-trimethoxyphenyl)-4H-benzopyran-3-yl)oxy)butyl) (methyl)amino) piperidine-1-dithiocarboxylic acid]
1 μmol/L
  Inhibition Rate (%): 98.09 ± 2.68 %
10 μmol/L
  Inhibition Rate (%): 99.28 ± 1.04 %

## COc1cc(OC)c2c(=O)c(OCCCCN(C)C3CCN(C(=S)SCc4ccccc4F)CC3)c(-c3cc(OC)c(OC)c(OC)c3)oc2c1 [Compound A13, 2-fluorobenzyl-4-((4-((5,7-dimethoxy-4-oxo-2-(3,4,5-trimethoxyphenyl)-4H-benzopyran-3-yl)oxy)butyl) (methyl)amino) piperidine-1-dithiocarboxylic acid]
1 μmol/L
  Inhibition Rate (%): 46.96 ± 4.65 %
10 μmol/L
  Inhibition Rate (%): 99.76 ± 1.06 %

## COc1cc(OC)c2c(=O)c(OCCCCN(C)C3CCN(C(=S)SCc4cccc(C)c4)CC3)c(-c3cc(OC)c(OC)c(OC)c3)oc2c1 [Compound A14, 3-methylbenzyl-4-((4-((5,7-dimethoxy-4-oxo-2-(3,4,5-trimethoxyphenyl)-4H-benzopyran-3-yl)oxy)butyl) (methyl)amino) piperidine-1-dithiocarboxylic acid]
1 μmol/L
  Inhibition Rate (%): 96.65 ± 2.61 %
10 μmol/L
  Inhibition Rate (%): 100 ± 0.42 %

## COc1cc(OC)c2c(=O)c(OCCCCN(C)C3CCN(C(=S)SCc4ccccc4C)CC3)c(-c3cc(OC)c(OC)c(OC)c3)oc2c1 [Compound A15, 2-methylbenzyl-4-((4-((5,7-dimethoxy-4-oxo-2-(3,4,5-trimethoxyphenyl)-4H-benzopyran-3-yl)oxy)butyl) (methyl)amino) piperidine-1-dithiocarboxylic acid]
1 μmol/L
  Inhibition Rate (%): 16.38 ± 3.82 %
10 μmol/L
  Inhibition Rate (%): 99.52 ± 1.12 %

## COc1cc(OC)c2c(=O)c(OCCCCN(C)C3CCN(C(=S)SCc4ccc([N+](=O)[O-])cc4)CC3)c(-c3cc(OC)c(OC)c(OC)c3)oc2c1 [Compound A16, 4-nitrobenzyl-4-((4-((5,7-dimethoxy-4-oxo-2-(3,4,5-trimethoxyphenyl)-4H-benzopyran-3-yl)oxy)butyl) (methyl)amino) piperidine-1-dithiocarboxylic acid]
1 μmol/L
  Inhibition Rate (%): 26.84 ± 4.36 %
10 μmol/L
  Inhibition Rate (%): 99.85 ± 0.71 %

## COc1cc(OC)c2c(=O)c(OCCCCN(C)C3CCN(C(=S)SCc4cccnc4)CC3)c(-c3cc(OC)c(OC)c(OC)c3)oc2c1 [Compound A17, pyridine-3-ylmethyl-4-((4-((5,7-dimethoxy-4-oxo-2-(3,4,5-trimethoxyphenyl)-4H-benzopyran-3-yl)oxy)butyl) (methyl)amino) piperidine-1-dithiocarboxylic acid]
1 μmol/L
  Inhibition Rate (%): 68.42 ± 2.35 %
10 μmol/L
  Inhibition Rate (%): 100 ± 1.31 %

## COc1cc(OC)c2c(=O)c(OCCCCN(C)C3CCN(C(=S)SCc4ccc(Cl)nc4)CC3)c(-c3cc(OC)c(OC)c(OC)c3)oc2c1 [Compound A18, (6-chloropyridine-3-yl) methyl-4-((4-((5,7-dimethoxy-4-oxo-2-(3,4,5-trimethoxyphenyl)-4H-benzopyran-3-yl)oxy)butyl) (methyl)amino) piperidine-1-dithiocarboxylic acid]
1 μmol/L
  Inhibition Rate (%): 33.58 ± 1.67 %
10 μmol/L
  Inhibition Rate (%): 100 ± 0.42 %

## Nc1ccn([C@@H]2O[C@H](CO)[C@@H](O)C2(F)F)c(=O)n1 [Gencitabine, gemcitabine, reference compound]
Homo sapiens, 1 μmol/L, read-out: Inhibition Rate (%)
  inhibition at 1 µM: 55.7 ± 2.26%
Homo sapiens, 10 μmol/L, read-out: Inhibition Rate (%)
  inhibition at 10 µM: 63.5 ± 2.18%
